Data set [1] addresses T1, Histone-lysine N-methyltransferase EHMT2 (Homo sapiens) (UniProt Q96KQ7).
T1 sequence (whole entry): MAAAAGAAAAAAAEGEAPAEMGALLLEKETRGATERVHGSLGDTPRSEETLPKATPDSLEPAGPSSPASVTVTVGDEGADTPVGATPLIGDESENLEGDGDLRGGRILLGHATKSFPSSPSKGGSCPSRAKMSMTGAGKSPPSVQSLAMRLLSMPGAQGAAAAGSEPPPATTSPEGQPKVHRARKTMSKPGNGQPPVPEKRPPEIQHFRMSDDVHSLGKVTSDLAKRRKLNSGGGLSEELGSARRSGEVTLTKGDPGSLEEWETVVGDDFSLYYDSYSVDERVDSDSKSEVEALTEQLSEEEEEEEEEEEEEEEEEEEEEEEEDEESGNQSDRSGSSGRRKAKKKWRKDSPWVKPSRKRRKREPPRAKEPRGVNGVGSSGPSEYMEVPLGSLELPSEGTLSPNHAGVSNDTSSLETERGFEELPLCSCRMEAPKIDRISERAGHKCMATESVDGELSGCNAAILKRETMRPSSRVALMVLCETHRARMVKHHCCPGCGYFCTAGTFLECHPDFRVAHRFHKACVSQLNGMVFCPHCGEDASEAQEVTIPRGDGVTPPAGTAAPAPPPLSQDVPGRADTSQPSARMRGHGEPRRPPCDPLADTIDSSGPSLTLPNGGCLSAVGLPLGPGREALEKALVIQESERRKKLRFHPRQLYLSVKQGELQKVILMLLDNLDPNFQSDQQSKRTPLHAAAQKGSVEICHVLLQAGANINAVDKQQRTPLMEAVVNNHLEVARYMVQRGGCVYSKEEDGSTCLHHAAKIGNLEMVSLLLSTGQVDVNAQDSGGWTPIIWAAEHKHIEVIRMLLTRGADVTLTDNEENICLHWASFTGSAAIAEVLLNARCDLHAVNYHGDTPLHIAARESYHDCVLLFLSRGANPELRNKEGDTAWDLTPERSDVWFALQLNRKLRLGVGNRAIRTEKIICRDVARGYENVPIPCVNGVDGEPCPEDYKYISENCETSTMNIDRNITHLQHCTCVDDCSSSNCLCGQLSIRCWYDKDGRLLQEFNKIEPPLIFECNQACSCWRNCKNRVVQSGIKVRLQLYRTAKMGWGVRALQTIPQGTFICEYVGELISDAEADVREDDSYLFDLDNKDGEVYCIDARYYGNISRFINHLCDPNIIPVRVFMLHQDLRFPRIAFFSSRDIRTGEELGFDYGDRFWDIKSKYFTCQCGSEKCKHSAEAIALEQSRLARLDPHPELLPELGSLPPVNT
Kind of data set: Inhibition of recombinant human EHMT2 G9a expressed in Escherichia coli Rosetta2(DE3)pLysS at 100 uM using histone H3 as substrate measured at 120 mins by liquid scintillation counting analysis.

Data set [2] addresses DNA (cytosine-5)-methyltransferase 3A (Homo sapiens) (UniProt Q9Y6K1). Kind of data set: Inhibition of recombinant human DNMT3A-3L expressed in Escherichia coli Rosetta2(DE3)pLysS at 100 uM using Poly(dI-dC)-Poly(dI-dC) as substrate measured at 150 mins by liquid scintillation counting analysis.
For data set [3], the target named is T2, tRNA (cytosine(72)-C(5))-methyltransferase NSUN6 (Homo sapiens) (UniProt Q8TEA1).
T2 sequence (whole entry): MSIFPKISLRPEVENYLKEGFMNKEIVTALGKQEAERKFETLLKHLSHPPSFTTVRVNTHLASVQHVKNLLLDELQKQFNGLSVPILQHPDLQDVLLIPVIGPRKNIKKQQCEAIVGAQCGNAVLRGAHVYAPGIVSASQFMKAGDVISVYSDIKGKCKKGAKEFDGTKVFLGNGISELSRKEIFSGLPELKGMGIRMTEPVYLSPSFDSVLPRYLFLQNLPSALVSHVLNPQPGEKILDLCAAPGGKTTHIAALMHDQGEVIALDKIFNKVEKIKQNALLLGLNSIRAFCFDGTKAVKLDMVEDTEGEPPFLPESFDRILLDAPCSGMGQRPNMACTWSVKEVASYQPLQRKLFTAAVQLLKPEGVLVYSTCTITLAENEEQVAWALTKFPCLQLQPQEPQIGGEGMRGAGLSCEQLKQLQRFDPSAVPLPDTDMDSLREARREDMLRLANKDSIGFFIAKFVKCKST
As to the kind of experiment: Inhibition of full length human NSUN6 expressed in Escherichia coli Rosetta2(DE3)pLysS at 100 uM measured at 20 mins by liquid scintillation counting analysis.

The nature of data set [4]: Cytotoxicity against human HEK293 cells assessed as cell viability at 100 uM measured after 24 hrs by MTT assay. The class given is toxicity, cell-based. (Tetrazolium assays rely on reduction of a dye to a coloured formazan, in cell work by metabolically active cells.)
Data set [5] addresses T3, tRNA (cytosine(38)-C(5))-methyltransferase (Homo sapiens) (UniProt O14717).
T3 sequence (whole entry): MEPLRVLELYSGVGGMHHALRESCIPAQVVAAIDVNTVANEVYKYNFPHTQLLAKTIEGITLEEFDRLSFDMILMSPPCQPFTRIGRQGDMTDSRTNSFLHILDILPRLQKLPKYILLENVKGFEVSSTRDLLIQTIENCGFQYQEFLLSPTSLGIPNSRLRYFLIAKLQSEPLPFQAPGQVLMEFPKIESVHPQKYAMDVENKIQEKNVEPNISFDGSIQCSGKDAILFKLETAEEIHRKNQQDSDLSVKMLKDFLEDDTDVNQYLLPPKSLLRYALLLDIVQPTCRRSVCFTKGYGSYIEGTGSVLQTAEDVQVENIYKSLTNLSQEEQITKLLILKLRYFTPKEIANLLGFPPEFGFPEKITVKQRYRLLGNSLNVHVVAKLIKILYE
Kind of data set: Inhibition of full length human N-terminal his6-tagged DNMT2 expressed in Escherichia coli Rosetta2(DE3)pLysS at 100 uM by liquid scintillation counting analysis.

The target in data set [6] is T4, tRNA (cytosine(38)-C(5))-methyltransferase (Homo sapiens, UniProt O14717).
T4 sequence (O14717 whole entry): T3 sequence (whole entry)
Kind of data set: Inhibition of full length human N-terminal his6-tagged DNMT2 expressed in Escherichia coli Rosetta2(DE3)pLysS by […] assay. In general terms: In ITC the heat of successive injections is recorded.

Data set [7] concerns the target RNA cytosine C(5)-methyltransferase NSUN2 (Homo sapiens) (UniProt Q08J23). Kind of data set: Inhibition of full length recombinant human NSUN2 expressed in Escherichia coli Rosetta2(DE3)pLysS at 100 uM measured at 20 mins by liquid scintillation counting analysis.
Data set [8] addresses T4, tRNA (cytosine(38)-C(5))-methyltransferase. Kind of data set: Binding affinity to full length human N-terminal his6-tagged DNMT2 expressed in Escherichia coli Rosetta2(DE3)pLysS assessed as dissociation constant at 100 uM by isothermal titration calorimetry assay.
In data set [9] the target is T3, tRNA (cytosine(38)-C(5))-methyltransferase (Homo sapiens). Kind of data set: Binding affinity to full length human N-terminal his6-tagged DNMT2 expressed in Escherichia coli Rosetta2(DE3)pLysS assessed as change in enthalpy change at 100 uM by isothermal titration calorimetry assay.
The target is the same in data set [10]. Kind of data set: Binding affinity to full length human N-terminal his6-tagged DNMT2 expressed in Escherichia coli Rosetta2(DE3)pLysS assessed as gibbs free energy change at 100 uM by isothermal titration calorimetry assay.
Data set [11] shares this target. As to the kind of experiment: Binding affinity to full length human N-terminal his6-tagged DNMT2 expressed in Escherichia coli Rosetta2(DE3)pLysS assessed as change in entropy at 100 uM by isothermal titration calorimetry assay.
Data set [12] shares this target. As to the kind of experiment: Inhibition of DNMT2-mediated tRNA methylation in human HEK293 cells assessed as reduction in m5C at C38 of tRNA by measuring m5C level at 100 uM incubated for 24 hrs by bisulfite sequencing analysis. The class given is cell-based.
Data set [13] in a line: Selectivity ratio of Kd for binding affinity to full length human N-terminal his6-tagged DNMT2 expressed in Escherichia coli Rosetta2(DE3)pLysS assessed as dissociation constant to IC50 for inhibition of full length human N-terminal his6-tagged DNMT2 expressed in Escherichia coli Rosetta2(DE3)pLysS.
A short description of data set [14]: Stability of the compound in TRIS buffer at 7.4 pH assessed as hydrolysis of ethyl ester at 100 uM incubated for 24 hrs by LC-MS analysis. Conditions: pH 7.4, read-out: Drug degradation. It is filed as physicochemical.
Data set [15] is described as follows: Permeability of the compound in human Caco-2 cells assessed as compound remaining by measuring ester form of the acceptor compartment incubated for 24 hrs by LC/MS analysis. The class given is ADME, cell-based. The note with it: caco-2, 24 h. (In general: Passage across Caco-2 layers is used to estimate intestinal permeability.)
The nature of data set [16]: Permeability of the compound in human Caco-2 cells assessed as compound remaining by measuring ester form of the donor compartment incubated for 24 hrs by LC/MS analysis. The class given is ADME, cell-based. Conditions: read-out: Activity.
Data set [17] can be described thus: Permeability of the compound in human Caco-2 cells assessed as compound remaining by measuring acid form of the donor compartment incubated for 24 hrs by LC/MS analysis. The class given is ADME, cell-based. The note with it: caco-2, 24 h.

One may read the inhibition as the share of the control response that was lost under treatment. As a reminder, the CC50 is the concentration giving 50% cytotoxicity. As usually defined, the IC50 is the concentration that gives 50% inhibition. Read a high IC50 as a need for much substance. For orientation: Kd means a measure of binding affinity in units of concentration.

Sequence of DNA (cytosine-5)-methyltransferase 3A (Homo sapiens) (Q9Y6K1 whole entry, looked up): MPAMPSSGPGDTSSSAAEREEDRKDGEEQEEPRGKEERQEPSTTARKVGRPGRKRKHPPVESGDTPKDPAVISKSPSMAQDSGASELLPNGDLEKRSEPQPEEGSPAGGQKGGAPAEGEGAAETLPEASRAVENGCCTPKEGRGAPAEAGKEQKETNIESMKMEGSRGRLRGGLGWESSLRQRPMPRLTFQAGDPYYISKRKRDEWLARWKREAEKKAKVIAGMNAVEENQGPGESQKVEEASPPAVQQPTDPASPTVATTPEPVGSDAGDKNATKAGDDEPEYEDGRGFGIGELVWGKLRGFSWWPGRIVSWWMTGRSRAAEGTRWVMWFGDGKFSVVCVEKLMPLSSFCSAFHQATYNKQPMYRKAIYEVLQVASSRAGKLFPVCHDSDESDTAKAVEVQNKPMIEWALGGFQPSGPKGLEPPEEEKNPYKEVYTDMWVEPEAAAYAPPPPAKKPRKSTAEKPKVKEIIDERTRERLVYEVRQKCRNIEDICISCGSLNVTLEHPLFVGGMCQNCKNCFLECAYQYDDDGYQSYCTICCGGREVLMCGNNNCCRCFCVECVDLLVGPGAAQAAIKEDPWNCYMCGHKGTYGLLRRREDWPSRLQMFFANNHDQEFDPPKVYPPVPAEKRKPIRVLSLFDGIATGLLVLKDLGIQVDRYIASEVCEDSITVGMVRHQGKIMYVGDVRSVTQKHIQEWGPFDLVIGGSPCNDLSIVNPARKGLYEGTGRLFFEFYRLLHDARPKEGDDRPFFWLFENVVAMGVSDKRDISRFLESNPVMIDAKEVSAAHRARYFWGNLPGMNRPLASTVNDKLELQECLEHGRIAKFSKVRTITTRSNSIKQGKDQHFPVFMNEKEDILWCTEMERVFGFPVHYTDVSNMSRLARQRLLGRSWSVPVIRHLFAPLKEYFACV
Sequence of RNA cytosine C(5)-methyltransferase NSUN2 (Homo sapiens) (Q08J23 whole entry): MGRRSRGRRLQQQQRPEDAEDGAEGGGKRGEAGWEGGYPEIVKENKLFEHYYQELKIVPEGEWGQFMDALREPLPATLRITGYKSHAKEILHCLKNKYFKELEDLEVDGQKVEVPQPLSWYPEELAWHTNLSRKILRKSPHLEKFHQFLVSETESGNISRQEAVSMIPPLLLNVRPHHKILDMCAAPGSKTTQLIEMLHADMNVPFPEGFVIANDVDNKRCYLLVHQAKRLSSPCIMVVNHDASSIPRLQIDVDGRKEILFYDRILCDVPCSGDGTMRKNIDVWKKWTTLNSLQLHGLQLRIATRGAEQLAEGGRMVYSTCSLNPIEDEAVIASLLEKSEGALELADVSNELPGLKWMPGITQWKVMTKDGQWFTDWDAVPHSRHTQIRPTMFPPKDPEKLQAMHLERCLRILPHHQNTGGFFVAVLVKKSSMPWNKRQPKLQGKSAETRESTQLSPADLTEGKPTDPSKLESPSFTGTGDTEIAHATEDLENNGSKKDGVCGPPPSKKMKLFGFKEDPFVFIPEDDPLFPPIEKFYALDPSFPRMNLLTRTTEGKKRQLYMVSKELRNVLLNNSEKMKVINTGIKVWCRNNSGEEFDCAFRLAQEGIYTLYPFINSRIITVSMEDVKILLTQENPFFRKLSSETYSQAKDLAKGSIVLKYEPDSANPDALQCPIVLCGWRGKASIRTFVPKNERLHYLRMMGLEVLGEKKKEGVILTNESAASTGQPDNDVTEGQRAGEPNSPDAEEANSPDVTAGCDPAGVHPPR

For the compound `CC#CCN(CC[C@H](N)C(=O)O)C[C@H]1O[C@@H](n2cnc3c(N)ncnc32)[C@H](O)[C@@H]1O`, the inhibition in data set [1] amounted to 37.6%; in [2], 93.9%; in data set [3], 12.9%.
For the compound `CCCN(CC[C@H](N)C(=O)O)C[C@H]1O[C@@H](n2cnc3c(N)ncnc32)[C@H](O)[C@@H]1O`, the 50% cytotoxic concentration (CC50) at 24 h in [4] is greater than 500 µM.
With `CCC#CCN(CC[C@H](N)C(=O)O)C[C@H]1O[C@@H](n2cnc3c(N)ncnc32)[C@H](O)[C@@H]1O`, the inhibition is 32% in data set [1], 95.3% in data set [2] and 22.7% in data set [3].
Consider `Nc1ncnc2c1ncn2[C@@H]1O[C@H](CSCC[C@H](N)C(=O)O)[C@@H](O)[C@H]1O` [S-ADENOSYLHOMOCYSTEINE], for which the inhibition in data set [1] came to 94.3%; in [5], 85.7%; in data set [7], 97.3%; in [2], 96.7%; in [3] it was 99.6%. In [6], this compound showed an IC50 of 15.8 µM. Besides, the Kd in [8] is 13.6 µM. For the same compound, in [9], the deltaH is -13.2 kcal/mol. In addition, the deltaG in [10] was -6.64 kcal/mol. For the same compound, the -TdeltaS in [11] was 6.57 kcal/mol.
Regarding `Nc1ncnc2c1ncn2[C@@H]1O[C@H](C[C@@H](N)CC[C@H](N)C(=O)O)[C@@H](O)[C@H]1O` [SINEFUNGIN], the inhibition in data set [12] was determined as 94%; in [1] it was 43%; in [5] it was 83.5%; in data set [7], 77.1%; in data set [2], 98%; in [3] it was 70.2%. Further, the CC50 at 24 h in data set [4] was greater than 500 µM. For the same compound, the IC50 in data set [6] was found to be 13.2 µM. Also, the Selectivity ratio in data set [13] is 2. Further, the Kd in data set [8] is 7.5 µM. In addition, the deltaH in data set [9] is -5.86 kcal/mol. The deltaG in data set [10] was -7 kcal/mol. Moreover, the -TdeltaS in [11] is -1.15 kcal/mol.
Regarding `C#CCN(CC[C@H](N)C(=O)O)C[C@H]1O[C@@H](n2cnc3c(N)ncnc32)[C@H](O)[C@@H]1O`, the inhibition in data set [1] came out at 22.8%; in data set [5] it was 72.2%; in data set [2], 97.6%; in data set [3] it was 25.9%. For the same compound, the IC50 in data set [6] is 77.1 µM. In addition, in data set [13], the Selectivity ratio is 7. Further, in data set [8], the Kd worked out at 11.4 µM. In addition, in [9], the deltaH is -9.03 kcal/mol. The deltaG in [10] is -6.74 kcal/mol. Moreover, the -TdeltaS in data set [11] was 2.29 kcal/mol.
For the compound `C#CC(C)N(CC[C@H](N)C(=O)OCC)C[C@H]1O[C@@H](n2cnc3c(N)ncnc32)[C@H](O)[C@@H]1O` (some centres undefined), in data set [4], the CC50 at 24 h was greater than 500 µM. Moreover, the degraded at 24 h, 100 µM in data set [14] turned out to be 60%. The Activity was 2% in data set [15] and “<= 78%” in data set [17]. In addition, the remaining at 24 h in data set [16] turned out to be 20%.
For `C#CC(C)N(CC[C@H](N)C(=O)O)C[C@H]1O[C@@H](n2cnc3c(N)ncnc32)[C@H](O)[C@@H]1O` (some centres undefined), in data set [4], the CC50 at 24 h is greater than 500 µM. The inhibition in data set [1] was 71%; in data set [2], 84.2%. For the same compound, in data set [15], the Activity is 0.6%.
